According to patent publication EP1007530B1, “6-O-SUBSTITUTED ERYTHROMYCIN COMPOUNDS AND METHOD FOR MAKING SAME” (ABBOTT LABORATORIES, priority 1996, dated 1997):
Values after ≈ are worked out from the molar mass of the structure shown.

Key:
Test in all cases: In vitro assay of antibacterial activity (agar dilution MIC)
Type in all cases: cell-based
[1] = system: Staphylococcus aureus A5177; conditions: BHI agar, 35-37 °C, 20 to 24 hours, unit assumed
Protocol: (§1) Representative compounds of the present invention were assayed in vitro for antibacterial activity as follows: Twelve petri dishes containing successive aqueous dilutions of the test compound mixed with 10 mL of sterilized Brain Heart Infusion (BHI) agar (Difco 0418-01-5) were prepared. Each plate was inoculated with 1:100 (or 1:10 for slow-growing strains, such as Micrococcus and Streptococcus) dilutions of up to 32 different microorganisms, using a Steers replicator block. The inoculated plates were incubated at 35-37 °C for 20 to 24 hours, In addition, a control plate, using BHI agar containing no test compound, was prepared and incubated at the beginning and end of each test.
(§2) An additional plate containing a compound having known susceptibility patterns for the organisms being tested and belonging to the same antibiotic class as the test compound was also prepared and incubated as a further control, as well as to provide test-to-test comparability.
(§3) After incubation, each plate was visually inspected. The minimum inhibitory concentration (MIC) was defined as the lowest concentration of drug yielding no growth, a slight haze, or sparsely isolated colonies on the inoculum spot as compared to the growth control. […]

Escherichia coli DC-2 = conditions: BHI agar, 35-37 °C, 20 to 24 hours, unit assumed
Protocol: as §1
as §2, with “comparability. Erythromycin A was used for this purpose.” for “comparability.”
as §3

[2] = system: Pseudomonas aeruginosa DPHD-5263; conditions: BHI agar, 35-37 °C, 20 to 24 hours, in µg/mL (unit assumed)
Protocol: as §1
as §2, with “comparability. Erythromycin A was used for this purpose.” for “comparability.”
as §3

[3] = system: Staphylococcus epidermidis 3519; conditions: BHI agar, 35-37 °C, 20 to 24 hours, unit assumed
Protocol: as §1
as §2, with “comparability. Erythromycin A was used for this purpose.” for “comparability.”
as §3

[4] = system: Streptococcus pyogenes 930; conditions: BHI agar, 35-37 °C, 20 to 24 hours, unit assumed
Protocol: as §1
as §2, with “comparability. Erythromycin A was used for this purpose.” for “comparability.”
as §3

[5] = system: Staphylococcus aureus A-5278; conditions: BHI agar, 35-37 °C, 20 to 24 hours, unit assumed
Protocol: as §1
as §2, with “comparability. Erythromycin A was used for this purpose.” for “comparability.”
as §3

[6] = system: Pseudomonas aeruginosa K799/61; conditions: BHI agar, 35-37 °C, 20 to 24 hours, unit assumed
Protocol: as §1
as §2, with “comparability. Erythromycin A was used for this purpose.” for “comparability.”
as §3

Escherichia coli H560 = conditions: BHI agar, 35-37 °C, 20 to 24 hours, unit assumed
Protocol: as §1
as §2, with “comparability. Erythromycin A was used for this purpose.” for “comparability.”
as §3

Pseudomonas capacia 2961 = conditions: BHI agar, 35-37 °C, 20 to 24 hours, in µg/mL (unit assumed)
Protocol: as §1
as §2, with “comparability. Erythromycin A was used for this purpose.” for “comparability.”
as §3

[7] = system: Enterococcus faecium ATCC 8043; conditions: BHI agar, 35-37 °C, 20 to 24 hours, unit assumed
Protocol: as §1
as §2, with “comparability. Erythromycin A was used for this purpose.” for “comparability.”
as §3

[8] = system: Micrococcus luteus ATCC 9341; conditions: BHI agar, 35-37 °C, 20 to 24 hours, unit assumed
Protocol: as §1
as §2, with “comparability. Erythromycin A was used for this purpose.” for “comparability.”
as §3

[9] = system: Pseudomonas aeruginosa BMH10; conditions: BHI agar, 35-37 °C, 20 to 24 hours, in µg/mL (unit assumed)
Protocol: as §1
as §2, with “comparability. Erythromycin A was used for this purpose.” for “comparability.”
as §3

[10] = system: Streptococcus agalactiae CMX 508; conditions: BHI agar, 35-37 °C, 20 to 24 hours, unit assumed
Protocol: as §1
as §2, with “comparability. Erythromycin A was used for this purpose.” for “comparability.”
as §3

Escherichia coli SS = conditions: BHI agar, 35-37 °C, 20 to 24 hours, unit assumed
Protocol: as §1
as §2, with “comparability. Erythromycin A was used for this purpose.” for “comparability.”
as §3

[11] = system: Staphylococcus aureus CMX 553; conditions: BHI agar, 35-37 °C, 20 to 24 hours, unit assumed
Protocol: as §1
as §2, with “comparability. Erythromycin A was used for this purpose.” for “comparability.”
as §3

[12] = system: Staphylococcus aureus CMX 642A; conditions: BHI agar, 35-37 °C, 20 to 24 hours, unit assumed
Protocol: as §1
as §2, with “comparability. Erythromycin A was used for this purpose.” for “comparability.”
as §3

Escherichia coli JUHL = conditions: BHI agar, 35-37 °C, 20 to 24 hours, in µg/mL (unit assumed)
Protocol: as §1
as §2, with “comparability. Erythromycin A was used for this purpose.” for “comparability.”
as §3

[13] = system: Pseudomonas aeruginosa K799/WT; conditions: BHI agar, 35-37 °C, 20 to 24 hours, unit assumed
Protocol: as §1
as §2, with “comparability. Erythromycin A was used for this purpose.” for “comparability.”
as §3

Escherichia coli KNK 437 = conditions: BHI agar, 35-37 °C, 20 to 24 hours, unit assumed
Protocol: as §1
as §2, with “comparability. Erythromycin A was used for this purpose.” for “comparability.”
as §3

[14] = system: Staphylococcus aureus NCTC10649M; conditions: BHI agar, 35-37 °C, 20 to 24 hours, unit assumed
Protocol: as §1
as §2, with “comparability. Erythromycin A was used for this purpose.” for “comparability.”
as §3

Candida albicans CCH 442 = conditions: BHI agar, 35-37 °C, 20 to 24 hours, unit assumed
Protocol: as §1
as §2, with “comparability. Erythromycin A was used for this purpose.” for “comparability.”
as §3

[15] = system: Streptococcus pyogenes PIU 2548; conditions: BHI agar, 35-37 °C, 20 to 24 hours, unit assumed
Protocol: as §1
as §2, with “comparability. Erythromycin A was used for this purpose.” for “comparability.”
as §3

[16] = system: Streptococcus bovis A-5169; conditions: BHI agar, 35-37 °C, 20 to 24 hours, unit assumed
Protocol: as §1
as §2, with “comparability. Erythromycin A was used for this purpose.” for “comparability.”
as §3

[17] = system: Staphylococcus aureus 1775; conditions: BHI agar, 35-37 °C, 20 to 24 hours, unit assumed
Protocol: as §1
as §2, with “comparability. Erythromycin A was used for this purpose.” for “comparability.”
as §3

[18] = system: Enterobacter aerogenes ATCC 13048; conditions: BHI agar, 35-37 °C, 20 to 24 hours, unit assumed
Protocol: as §1
as §2, with “comparability. Erythromycin A was used for this purpose.” for “comparability.”
as §3

[19] = system: Pseudomonas aeruginosa 5007; conditions: BHI agar, 35-37 °C, 20 to 24 hours, unit assumed
Protocol: as §1
as §2, with “comparability. Erythromycin A was used for this purpose.” for “comparability.”
as §3

[20] = system: Providencia struartii CMX 640; conditions: BHI agar, 35-37 °C, 20 to 24 hours, unit assumed
Protocol: as §1
as §2, with “comparability. Erythromycin A was used for this purpose.” for “comparability.”
as §3

[21] = system: Staphylococcus aureus ATCC 6538P; conditions: BHI agar, 35-37 °C, 20 to 24 hours, unit assumed
Protocol: as §1
as §2, with “comparability. Erythromycin A was used for this purpose.” for “comparability.”
as §3

[22] = system: Klebsiella pneumoniae ATCC 8045; conditions: BHI agar, 35-37 °C, 20 to 24 hours, unit assumed
Protocol: as §1
as §2, with “comparability. Erythromycin A was used for this purpose.” for “comparability.”
as §3

[23] = system: Micrococcus luteus ATCC 4698; conditions: BHI agar, 35-37 °C, 20 to 24 hours, unit assumed
Protocol: as §1
as §2, with “comparability. Erythromycin A was used for this purpose.” for “comparability.”
as §3

[24] = system: Pseudomonas aeruginosa DPHD-2862; conditions: BHI agar, 35-37 °C, 20 to 24 hours, unit assumed
Protocol: as §1
as §2, with “comparability. Erythromycin A was used for this purpose.” for “comparability.”
as §3

[25] = system: Actinetobacter calcoaceticus CMX 669; conditions: BHI agar, 35-37 °C, 20 to 24 hours, unit assumed
Protocol: as §1, §2, §3

[26] = system: Mycobacterium smegmatis ATCC 114; conditions: BHI agar, 35-37 °C, 20 to 24 hours, unit assumed
Protocol: as §1
as §2, with “comparability. Erythromycin A was used for this purpose.” for “comparability.”
as §3

[27] = system: Streptococcus pyogenes EES61; conditions: BHI agar, 35-37 °C, 20 to 24 hours, unit assumed
Protocol: as §1
as §2, with “comparability. Erythromycin A was used for this purpose.” for “comparability.”
as §3

SMILES | MIC [2] | MIC [3] | MIC [4] | MIC [5] | MIC [6] | MIC (Escherichia coli H560) | MIC (Pseudomonas capacia 2961) | MIC [7] | MIC [8] | MIC [9] | MIC [10] | MIC [12] | MIC (Escherichia coli JUHL) | MIC [13] | MIC (Escherichia coli KNK 437) | MIC [14] | MIC (Candida albicans CCH 442) | MIC [15] | MIC [16] | MIC [17] | further results
CC[C@H]1OC(=O)[C@H](C)[C@@H](O[C@H]2C[C@@](C)(OC)[C@@H](O)[C@H](C)O2)[C@H](C)[C@@H](O[C@@H]2O[C@H](C)C[C@H](N(C)C)[C@H]2O)[C@](C)(O)C[C@@H](C)C(=O)[C@H](C)[C@@H](O)[C@]1(C)O [Ery. A, Erythromycin A, reference compound] | >100 | 0.39 µg/mL (≈ 0.531 µM) | > 100 µg/mL | > 100 µg/mL | 1.56 µg/mL (≈ 2.13 µM) | 50 µg/mL (≈ 68.1 µM) | > 100 | 0.05 µg/mL (≈ 0.0681 µM) | 0.05 µg/mL (≈ 0.0681 µM) | > 100 | 0.05 µg/mL (≈ 0.0681 µM) | 0.39 µg/mL (≈ 0.531 µM) | > 100 | 100 µg/mL (≈ 136 µM) | 100 µg/mL (≈ 136 µM) | 0.39 µg/mL (≈ 0.531 µM) | > 100 µg/mL | 3.1 µg/mL (≈ 4.22 µM) | 0.02 µg/mL (≈ 0.0273 µM) | > 100 µg/mL | MIC [1]: 3.1 µg/mL (≈ 4.22 µM); MIC (Escherichia coli DC-2): > 100 µg/mL; MIC (Escherichia coli SS): 0.78 µg/mL (≈ 1.06 µM); MIC [11]: 0.39 µg/mL (≈ 0.531 µM); MIC [18]: > 100 µg/mL; MIC [19]: > 100 µg/mL; MIC [20]: > 100 µg/mL; MIC [21]: 0.2 µg/mL (≈ 0.273 µM); MIC [22]: > 100 µg/mL; MIC [23]: 0.2 µg/mL (≈ 0.273 µM); MIC [24]: > 100 µg/mL
CC[C@H]1OC(=O)[C@H](C)[C@@H](O[C@H]2C[C@@](C)(OC)[C@@H](O)[C@H](C)O2)[C@H](C)[C@@H](O[C@@H]2O[C@H](C)C[C@H](N(C)C)[C@H]2O)[C@](C)(OCC(C)=O)C[C@@H](C)C(=O)[C@H](C)[C@@H](O)[C@]1(C)O [Example 9, Compound of Formula (X); X is =O. R is 2-oxopropyl] | > 100 | 3.1 µg/mL | > 100 µg/mL | > 100 µg/mL | 12.5 µg/mL | > 100 µg/mL | > 100 | 3.1 µg/mL | 3.1 µg/mL | > 100 | 3.1 µg/mL | 3.1 µg/mL | > 100 | > 100 µg/mL | > 100 µg/mL | 3.1 µg/mL | > 100 µg/mL | 12.5 µg/mL | 3.1 µg/mL | > 100 µg/mL | MIC [25]: 50 µg/mL; MIC [18]: > 100 µg/mL; MIC [19]: > 100 µg/mL; MIC [20]: > 100 µg/mL; MIC [21]: 3.1 µg/mL; MIC [26]: 3.1 µg/mL; MIC [22]: > 100 µg/mL; MIC [24]: > 100 µg/mL
CCCO[C@]1(C)C[C@@H](C)C(=O)[C@H](C)[C@@H](O)[C@](C)(O)[C@@H](CC)OC(=O)[C@H](C)[C@@H](O[C@H]2C[C@@](C)(OC)[C@@H](O)[C@H](C)O2)[C@H](C)[C@H]1O[C@@H]1O[C@H](C)C[C@H](N(C)C)[C@H]1O [Example 2, Compound of Formula (X): X is =O, R is propyl] | >100 | 1.56 µg/mL | > 100 µg/mL | > 100 µg/mL | > 100 µg/mL | > 100 µg/mL | 50 | 3.1 µg/mL | 0.2 µg/mL | >100 | 0.2 µg/mL | 12.5 µg/mL | >100 | 6.2 µg/mL | > 100 µg/mL | 6.2 µg/mL | 0.1 µg/mL | 6.2 µg/mL | 0.05 µg/mL | > 100 µg/mL | MIC [25]: > 100 µg/mL; MIC [1]: 25 µg/mL; MIC (Escherichia coli DC-2): > 100 µg/mL; MIC (Escherichia coli SS): 1.56 µg/mL; MIC [11]: 3.1 µg/mL; MIC [27]: 0.05 µg/mL; MIC [18]: > 100 µg/mL; MIC [19]: > 100 µg/mL; MIC [20]: > 100 µg/mL; MIC [21]: 3.1 µg/mL; MIC [22]: > 100 µg/mL; MIC [23]: 3.1 µg/mL; MIC [24]: > 100 µg/mL
